Source: patent US12387622B2, “Systems and methods for modeling veins and associated blood vessel components” (The Texas A&M University System, priority 2019, dated 2025)

Legend:
[1] = test system: thrombi formation within venous valves 50A-50C; experiment: Vein-on-a-chip: anticoagulant-treated blood perfused through TNF-α treated, HUVEC-lined venous valves; platelets and fibrin imaged; type: cell-based, human; details: for thrombi at cusps 52 and at the microfluidic channel 44B: DOAC dosage increased to 500 ng/ml; for thrombi at cusps 52 and at the microfluidic channel 44B / fibrin rich clots in cusps 52 / thrombi in the luminal portion of the microfluidic model 40: venous valve 50B treated with TNF-α
Description: In this embodiment, to form microfluidic chip 40, microelectronic and semiconductor fabrication techniques were used to develop an SU-8 photoresist-based master mold. Particularly, computational fluid dynamics simulations were carried out to arrive at the open venous valve designs (e.g., venous valves 50A-50C) which contained recirculations as observed in venous valve cusps in vivo. The embodiments of the finalized venous valve designs shown in FIGS. 3-5 were developed using solid modeling computer-aided design (CAD) software (e.g., the SolidWorks™ software package published by Dassault Systemes) and a photomask of the finalized valve designs was used to fabricate the master mold using epoxy-based negative photoresist—SU-8 on a silicon wafer in this embodiment. In this embodiment for forming microchannels 44A-44C, once the master molds were fabricated, the wafers were treated with Silane, and Polydimethylsiloxane (PDMS) having an […] to crosslinker ratio of about 10:1 was poured into the master mold. In this embodiment, once the PDMS was set, the PDMS was striped and bonded to a PDMS coated glass slide to form microchannels 44A-44C, each microchannel 44A-44C having PDMS coated on each side thereof. Additionally, PDMS, being hydrophobic, was treated with plasma and then silanized with (3-aminopropyl) triethoxylsilane (APTES) to make the PDMS hydrophilic. In this embodiment, microchannels 44A-44C were then filled with type-I rat tail collagen of about 200 micrograms per milliliter (ug/ml) and fibronectin of about 50 ug/ml to form an extracellular matrix (ECM) configured to support endothelial cell growth on the walls of each microchannel 44A-44C.
(§1) In this embodiment for forming microchannels 44A-44C, human umbilical vein endothelial cells (HUVECs) were cultured over a layer of the ECM coated on microchannels 44A-44C; however, in other embodiments, human or animal cell lines other than HUVECs may also be used in the formation of microchannels 44A-44C. In this embodiment, HUVECs, a human primary cell line derived from the human umbilical vein, were acquired and seeded on T75 flasks coated with type I rat tail collagen of about 5 micrograms (μg) per 5 cm^2, the HUVECs being seeded at about 50,000 cells per flask. In this embodiment, the endothelial growth media (EGM) (EGM-2 MV, promocell in this embodiment) disposed in the flasks were replaced every two days, and once the flasks were 80% confluent, the HUVECs were detached from the flasks and seeded on microchannels 44A-44C with about 20-30 microliters (μl) of cell suspension having cell density of about 1e7 cells per milliliter (ml). The cell suspension was passed through a cell strainer to remove debris and cell aggregates that were larger than about 40 μm in diameter. In this embodiment, microchannels 44A-44C were then first filled with cell suspension and kept upside down for about 20 minutes to seed the top face of microchannels 44A-44C, and then microchannels 44A-44C were again filled with cell suspension and kept upright for 20 minutes to seed the bottom faces of microchannels 44A-44C.
To induce activation, the vascular lumen coated to microchannels 44A-44C was treated with the tumor necrosis factor (TNF) TNF-α at about 0-200 nanograms per milliliter (ng/ml) in this embodiment. Particularly, the seeded microchannels 44A-44C were perfused with media at about 1 ul/min for about 24 hours. Confluent lumen was formed on the walls of microchannels 44A-44C at the end of 24 hours. Additionally, in this embodiment, different doses TNF-α, a cytokine, was introduced into the confluent lumen of the channels for about 18 hours to observe the dose dependent inflammation of the endothelial cells in the straight sections of microchannels 44A-44C and venous valve cusps of venous valves 50A-50C.
In this embodiment of the formation of microchannels 44A-44C, to evaluate role of hypoxia, microfluidic chip 40 was incubated at 3.9% oxygen. […]

[2] = test system: human umbilical vein endothelial cells (HUVECs); experiment: Vein-on-a-chip: TNF-α stimulation of HUVEC lumen followed by blood perfusion at venous shear; type: cell-based
Description: as §1, with “The cell suspension was passed through a cell strainer to remove debris and cell aggregates that were larger than about 40 μm in diameter. In this embodiment, microchannels 44A-44C were then first filled with cell suspension and kept upside down for about 20 minutes to seed the top face of microchannels 44A-44C, and then microchannels 44A-44C were again filled with cell suspension and kept upright for 20 minutes to seed the bottom faces of microchannels 44A-44C.” left out
In this embodiment of the formation of microchannels 44A-44C, to evaluate role of hypoxia, microfluidic chip 40 was incubated at 3.9% oxygen. […] Fluorescently labelled platelets and fibrin were visualized and quantitated via microscopes positioned adjacent microchannels 44A-44C. Additionally, in this embodiment, typical vascular identity and adhesion markers were measured through immunohistochemistry. […]

[3] = standard dosage 50 ng/ml of Apixaban in blood
[4] = standard dosage 100 ng/ml of Rivaroxaban in blood

Compound: COc1ccc(-n2nc(C(N)=O)c3c2C(=O)N(c2ccc(N4CCCCC4=O)cc2)CC3)cc1 [Apixaban]
- thrombi at cusps 52 and at the microfluidic channel 44B [1]: thrombi detected
- fibrin rich clots in cusps 52 [1, 3]: fibrin rich clots were present
- thrombi in the luminal portion of the microfluidic model 40 [1, 3]: unobservable thrombi

Compound: O=C(NC[C@H]1CN(c2ccc(N3CCOCC3=O)cc2)C(=O)O1)c1ccc(Cl)s1 [Rivaroxaban]
- thrombi at cusps 52 and at the microfluidic channel 44B [1]: thrombi detected
- fibrin rich clots in cusps 52 [1, 4]: fibrin rich clots were present
- thrombi in the luminal portion of the microfluidic model 40 [1, 4]: unobservable thrombi

Compound: Heparin
- thrombi formation within venous valves 50A-50C ([1]; addition of heparin in blood, dose dependent): decreased the thrombi formation
- fibrin in cusps 52 ([1]; higher Heparin dosage 0.50 IU/ml, TNF-α 5 ng/ml): only reduced at the higher Heparin dosage
- fibrin within microfluidic model 40 ([1]; lower dose of Heparin (approximately 0.25 IU/ml), TNF-α 5 ng/ml): reduction in fibrin resulted
- thrombi formed in microfluidic channels 44A-44C ([1]; when the dosage of Heparin was increased (0.25 to 0.50 IU/ml), valve 50B treated with TNF-α 5 ng/ml, FIG. 38): reduced significantly

Compound: TNF-α
- thrombi in venous valves upon stimulation of HUVECs ([2]; blood perfused at venous shear of about 0.5 dynes/cm^2, no thrombi with untreated HUVECs): thrombi were detected
- clot formation in lumen treated with varying doses of cytokine ([2]; blood perfused at venous shear rates): fibrin rich clots were predominantly formed in the venous valve cusps
